Measured values: US6541463B1, “Inhibitors of type 5 and type 3 17β-hydroxysteroid dehydrogenase and methods for their use” (Endorecherche, Inc., priority 1998, dated 2003)

Columns and labels:
[1] = tested on: Shionogi mouse mammary carcinoma cells; experiment: Androgenic activity: stimulation of proliferation of Shionogi cells; type: cell-based
Procedure, shortened: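 Values are the percent stimulation of cell number, measured by Coulter counter, after 10–12 days of exposure to 10^−7 M or 10^−6 M compound. Androgen-sensitive Shionogi cells were seeded at 20 000 cells/well in triplicate in dextran-charcoal-treated FCS medium, refreshed every 3–4 days.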

[2] = target: T1, estrogen receptor (Rattus norvegicus, UniProt P06211); experiment: Estrogen receptor (ER) assay: inhibition of [3H]E2 binding, uterine cytosol
T1 construct: from tissue; host or cells: uterine cytosol of gonadectomized female Sprague-Dawley rats
T1 sequence (P06211 1-600): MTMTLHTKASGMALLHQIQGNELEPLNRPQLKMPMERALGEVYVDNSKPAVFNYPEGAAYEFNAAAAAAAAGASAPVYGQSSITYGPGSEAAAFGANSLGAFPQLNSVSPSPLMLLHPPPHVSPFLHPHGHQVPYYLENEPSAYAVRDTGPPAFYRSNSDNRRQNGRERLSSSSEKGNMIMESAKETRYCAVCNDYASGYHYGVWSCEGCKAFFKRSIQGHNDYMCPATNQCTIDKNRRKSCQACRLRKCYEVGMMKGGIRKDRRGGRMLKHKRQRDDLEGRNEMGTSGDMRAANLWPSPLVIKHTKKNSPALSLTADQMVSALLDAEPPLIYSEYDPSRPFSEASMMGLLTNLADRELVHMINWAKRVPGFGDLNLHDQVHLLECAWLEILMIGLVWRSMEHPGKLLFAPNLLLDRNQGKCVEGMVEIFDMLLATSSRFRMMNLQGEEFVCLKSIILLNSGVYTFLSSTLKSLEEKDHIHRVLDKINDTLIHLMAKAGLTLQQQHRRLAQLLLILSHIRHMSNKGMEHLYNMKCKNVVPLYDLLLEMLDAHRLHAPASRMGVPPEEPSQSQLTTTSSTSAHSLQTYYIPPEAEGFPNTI
Procedure: Female Sprague-Dawley rats (Crl: CD(SD)Br) weighing 200-300 g were obtained from Charles-River Inc. (St-Constant, Québec, Canada). The rats were gonadectomized under general anesthesia (Isoflurane) and killed by cervical dislocation 24 hours later. The uteri were rapidly removed, dissected free from adhering tissue and frozen on dry-ice. Uteri were kept at −80° C. until assay. All subsequent steps were performed at 0-4° C. Uteri were homogenized in 10 vol (wt/vol) of buffer A (25 mM Tris-HCI, 1.5 mM EDTA disodium salt, 10 mM α-monothioglycerol, 10% glycerol, and 10 mM sodium molybdate, pH 7.4), using a Polytron PT-10 homogenizer (Brinkman Instruments, Canada) at a setting of 5 for three periods of 10 sec, with intervals of 10 sec for cooling. The homogenate was then centrifuged at 105,000×g for 60 min in a Beckman L5-65 ultracentrifuge (Fullerton, Calif.). The protein concentration of the cytosol fraction was measured according to the method of Bradford (Anal. Biochem. 72: 248-254, 1976), using bovine serum albumin as standard.
Estrogen binding was measured using the dextran-coated charcoal adsorption technique as described previously (Asselin et al., Endocrinology, 101: 666-671, 1977; Asselin and Labrie, J. Steroid Biochem., 9: 1079-1082, 1978). Briefly, [^3H]E2 solubilized in ethanol were diluted into buffer A. Aliquots of uterine cytosol preparation (0.1 ml) were incubated with 5 nM [^3H]E2 (˜200,000 cpm, 0.1 ml) in the presence or absence of the indicated concentrations of unlabeled compounds (0.1 ml, prepared in buffer A containing 10% ethanol) for 3 h at room temperature. Unbound steroids were then separated by incubation for 15 min at 0-4° C. with 0.3 ml 0.5% Norit-A and 0.05% Dextran T-70 in buffer B (1.5 mM EDTA disodium salt, 10 mM monothioglycerol, and 10 mM Tris-HCI, pH 7.4) and centrifuged at 3,000×g for 15 min. Aliquots of the supernatant (0.3 ml) were removed for radioactivity measurement.

SMILES: C[C@]12CCC(=O)C=C1C=C[C@@H]1[C@@H]2CC[C@]2(C)C(=O)C3(CC4CC4C3)C[C@@H]12 (stereo partly shown) [EM-1299, 4,6-Androstadien-3,17-dione-16-spirobicyclo[3′.1′.0′]-hexane]
- Androgenic Activity Shionogi, Basal E^−6 ([1]; E^−6): 10
- Androgenic Activity Shionogi, Basal E^−7 ([1]; E^−7): 5
- % Inhibition Estrogen Receptor E^−6 ([2]; E^−6): 3%
- % Inhibition Estrogen Receptor E^−8 ([2]; E^−8): 3%
